The assay concerns the target Prostaglandin E2 receptor EP2 subtype (Homo sapiens, UniProt P43116). Briefly: Binding Assay: Measurement of EP2 receptor binding affinity was carried out according to the method of Abramovitz et al. (Biochimica et Biophysica Acta, 1483, 285 (2000)). […] The membrane fraction was recovered on glass fiber filter paper (GF/B, available from Whatman PLC) using a cell harvester (M30R, available from Brandel Inc.), and after washing with a buffer solution (10 mM MES-KOH (pH 6.0), 10 mM MgCl2), radioactivity was measured with a liquid scintillation analyzer (2000CA, available from Packard). The assay is classed as cell membranes. The following applies: hek293.

Molecules are shown by their SMILES.

Sequence of Prostaglandin E2 receptor EP2 subtype (P43116 whole entry): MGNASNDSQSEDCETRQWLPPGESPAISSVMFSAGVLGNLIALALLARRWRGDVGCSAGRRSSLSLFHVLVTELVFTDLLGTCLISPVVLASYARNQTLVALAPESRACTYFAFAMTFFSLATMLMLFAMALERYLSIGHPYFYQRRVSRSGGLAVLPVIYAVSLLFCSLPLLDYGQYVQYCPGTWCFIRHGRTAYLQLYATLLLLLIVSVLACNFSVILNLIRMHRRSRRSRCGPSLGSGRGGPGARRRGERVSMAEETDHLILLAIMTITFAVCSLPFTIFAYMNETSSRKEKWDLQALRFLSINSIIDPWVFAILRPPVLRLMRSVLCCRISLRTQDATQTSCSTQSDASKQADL

Take `COc1ccc(-c2cc(-c3ccccc3)[nH]c2C(=O)Nc2ccc(C(=O)NO)o2)cc1`: the Ki amounted to 3.1 nM.
Then `O=C(NO)c1ccc(CNC(=O)c2[nH]c(-c3ccoc3)cc2-c2ccc(F)cc2)cc1`, with 1.1 nM.
In the case of `COC(=O)c1ccc(CNC(=O)c2[nH]c(-c3cccs3)cc2-c2ccc(F)cc2)nc1` it was 3.8 nM.
In the case of `O=C(O)c1[nH]c(-c2ccoc2)cc1-c1ccc(O)cc1` it was 2.8 nM; in that of `O=C(NO)c1ccc(CNC(=O)c2[nH]c(-c3ccc(O)cc3)cc2-c2ccoc2)cc1`, 9.4 nM.
For `O=C(NO)c1ccc(CNC(=O)c2[nH]c(-c3ccccc3)cc2-c2ccc(F)cc2)o1`, the Ki was 1.5 nM.
Then `O=C(NO)c1ccc(CNC(=O)c2[nH]c(-c3cccs3)cc2-c2ccc(O)cc2)cc1`, with 13 nM.

Source of the values: ChEMBL document CHEMBL3638739, “Medical composition for treatment or prophylaxis of glaucoma” (2014).
